Data published in ChEMBL document CHEMBL5390216, “Development of small molecule inhibitors of natural killer group 2D receptor (NKG2D)” (Bioorg Med Chem Lett, 2023).

target: T1, NKGD2-ULBP6 (Homo sapiens, UniProt P26718); experiment: Inhibition of NKG2D (unknown origin)/ULBP6 (unknown origin) protein-protein interaction by cell-based TR-FRET assay
T1 sequence (P26718 whole entry): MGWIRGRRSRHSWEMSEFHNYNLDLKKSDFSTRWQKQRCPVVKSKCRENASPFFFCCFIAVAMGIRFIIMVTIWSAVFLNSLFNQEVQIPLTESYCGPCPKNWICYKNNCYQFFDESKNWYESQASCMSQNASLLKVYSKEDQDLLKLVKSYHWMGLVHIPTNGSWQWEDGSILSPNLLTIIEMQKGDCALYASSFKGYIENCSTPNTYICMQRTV
T1 sequence (Q5VY80 whole entry): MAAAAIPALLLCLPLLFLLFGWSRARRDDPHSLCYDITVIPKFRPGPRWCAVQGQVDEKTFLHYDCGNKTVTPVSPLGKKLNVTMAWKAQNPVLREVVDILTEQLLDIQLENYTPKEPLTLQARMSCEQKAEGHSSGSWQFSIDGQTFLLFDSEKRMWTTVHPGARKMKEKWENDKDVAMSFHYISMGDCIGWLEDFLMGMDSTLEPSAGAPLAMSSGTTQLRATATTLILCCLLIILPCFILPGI

| Structure (SMILES) | IC50 |
| --- | --- |
| CN(C)C(=O)C(NC(=O)c1cncnc1-c1ccc(C(F)(F)F)cc1)c1cccc(C(F)(F)F)c1 (racemic) | > 20000 nM |
| CN(C)C(=O)C(NC(=O)c1ccccc1-c1ccccc1)c1cccc(C(F)(F)F)c1 (stereo unspecified) | > 20000 nM |
| CN(C)C(=O)C(NC(=O)c1ccccc1-c1ccc(C(F)(F)F)cc1)c1cccc(C(F)(F)F)c1 (racemic) | 5000 nM |
| O=C(NC(C(=O)N1CCC[C@H]1CO)c1cccc(C(F)(F)F)c1)c1ccccc1-c1ccc(C(F)(F)F)cc1 (stereo partly specified) | > 20000 nM |
| CN(C)C(=O)[C@@H](NC(=O)c1ccccc1-c1ccc(C(F)(F)F)cc1)c1cccc(C2CC2)c1 | 4200 nM |
| CN(C)C(=O)[C@@H](NC(=O)c1ccccc1-c1ccc(C(F)(F)F)cc1)c1ccccc1 (racemic) | > 20000 nM |
| CN(C)C(=O)[C@@H](NC(=O)c1ccccc1-c1ccc(C(F)(F)F)cc1)c1ccc(Cl)cc1 | 5800 nM |
| CC1(C)C[C@H](CO)N(C(=O)C(NC(=O)c2ccccc2-c2ccc(C(F)(F)F)cc2)c2cccc(C(F)(F)F)c2)C1 (stereo partly specified) | > 20000 nM |
| CN(C)C(=O)C(NC(=O)c1cccc(-c2ccc(C(F)(F)F)cc2)c1)c1cccc(C(F)(F)F)c1 (stereo unspecified) | > 20000 nM |
| O=C(NC(C(=O)N1CCC1)c1cccc(C(F)(F)F)c1)c1ccccc1-c1ccc(C(F)(F)F)cc1 (racemic) | 8200 nM |
| O=C(NC(C(=O)N1CCCC1)c1cccc(C(F)(F)F)c1)c1ccccc1-c1ccc(C(F)(F)F)cc1 (racemic) | 5100 nM |
| CN(C)C(=O)C(c1cccc(C(F)(F)F)c1)N(C)C(=O)c1ccccc1-c1ccc(C(F)(F)F)cc1 (stereo unspecified) | > 20000 nM |
| CN(C)C(=O)C(C)(NC(=O)c1ccccc1-c1ccc(C(F)(F)F)cc1)c1cccc(C(F)(F)F)c1 (stereo unspecified) | > 20000 nM |
| CN(C)C(=O)[C@@H](NC(=O)c1ncccc1-c1ccc(C(F)(F)F)cc1)c1cccc(C(F)(F)F)c1 | 3800 nM |

These reach a lower IC50. Values come first.

| IC50 | Structure (SMILES) |
| --- | --- |
| 3100 nM | O=C(N[C@H](C(=O)N1C[C@@H]2[C@H](CO)[C@@H]2C1)c1cccc(C(F)(F)F)c1)c1ccccc1-c1ccc(C(F)(F)F)cc1 |
| 3100 nM | O=C(N[C@H](C(=O)N1C[C@@H]2[C@@H](CO)[C@@H]2C1)c1cccc(C(F)(F)F)c1)c1ccccc1-c1ccc(C(F)(F)F)cc1 |
| 2800 nM | Cc1n[nH]cc1-c1ccc(-c2ccc(C(F)(F)F)cc2)c(C(=O)NC(C(=O)N(C)C)c2cccc(C(F)(F)F)c2)c1 (racemic) |
| 2700 nM | CN(C)C(=O)[C@@H](NC(=O)c1ccccc1-c1ccc(C(F)(F)F)cc1)c1cccc(C(F)(F)F)c1 |
| 2400 nM | CN(C)C(=O)[C@@H](NC(=O)c1cc(-c2nnnn2C)ccc1-c1ccc(C(F)(F)F)cc1)c1cccc(C(F)(F)F)c1 |
| 400 nM | Cc1cc([C@H](NC(=O)c2cnccc2-c2ccc(C(F)(F)F)cc2)C(=O)N(C)C)cc(C(F)(F)F)c1 |
| 400 nM | CN(C)C(=O)[C@@H](NC(=O)c1cnccc1-c1ccc(C(F)(F)F)cc1)c1ccc(F)c(C(F)(F)F)c1 |
| 400 nM | CN(C)C(=O)[C@@H](NC(=O)c1cnccc1-c1ccc(C(F)(F)F)cc1)c1ccc(Cl)c(Cl)c1 |
| 200 nM | CN(C)C(=O)[C@@H](NC(=O)c1cnccc1-c1ccc(C(F)(F)F)cc1)c1cc(Cl)cc(C(F)(F)F)c1 |

target: T2, NKGD2-MICA (Homo sapiens, UniProt P26718); experiment: Inhibition of NKG2D (unknown origin)/MICA (unknown origin) protein-protein interaction by cell-based TR-FRET assay
T2 sequence (P26718 whole entry): T1 sequence (P26718 whole entry)
T2 sequence (Q29983 whole entry): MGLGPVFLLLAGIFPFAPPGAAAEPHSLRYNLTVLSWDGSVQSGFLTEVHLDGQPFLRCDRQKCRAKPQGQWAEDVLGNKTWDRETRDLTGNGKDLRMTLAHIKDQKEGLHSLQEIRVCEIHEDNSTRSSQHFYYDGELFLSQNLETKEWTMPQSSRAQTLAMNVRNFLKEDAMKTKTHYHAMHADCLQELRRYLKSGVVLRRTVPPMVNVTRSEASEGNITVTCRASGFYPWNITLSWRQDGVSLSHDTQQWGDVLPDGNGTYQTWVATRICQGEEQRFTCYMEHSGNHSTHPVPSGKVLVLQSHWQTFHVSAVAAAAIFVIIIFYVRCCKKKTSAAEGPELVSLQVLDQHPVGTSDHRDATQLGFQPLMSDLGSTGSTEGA

| Structure (SMILES) | IC50 |
| --- | --- |
| CN(C)C(=O)C(NC(=O)c1cncnc1-c1ccc(C(F)(F)F)cc1)c1cccc(C(F)(F)F)c1 (racemic) | > 20000 nM |
| CN(C)C(=O)C(NC(=O)c1ccccc1-c1ccccc1)c1cccc(C(F)(F)F)c1 (stereo unspecified) | > 20000 nM |
| CN(C)C(=O)C(NC(=O)c1ccccc1-c1ccc(C(F)(F)F)cc1)c1cccc(C(F)(F)F)c1 (racemic) | 2200 nM |
| O=C(NC(C(=O)N1CCC[C@H]1CO)c1cccc(C(F)(F)F)c1)c1ccccc1-c1ccc(C(F)(F)F)cc1 (stereo partly specified) | 14500 nM |
| CN(C)C(=O)[C@@H](NC(=O)c1ccccc1-c1ccc(C(F)(F)F)cc1)c1cccc(C2CC2)c1 | 1800 nM |
| CN(C)C(=O)[C@@H](NC(=O)c1ccccc1-c1ccc(C(F)(F)F)cc1)c1ccccc1 (racemic) | > 20000 nM |
| CN(C)C(=O)[C@@H](NC(=O)c1ccccc1-c1ccc(C(F)(F)F)cc1)c1ccc(Cl)cc1 | 3300 nM |
| CC1(C)C[C@H](CO)N(C(=O)C(NC(=O)c2ccccc2-c2ccc(C(F)(F)F)cc2)c2cccc(C(F)(F)F)c2)C1 (stereo partly specified) | > 20000 nM |
| CN(C)C(=O)C(NC(=O)c1cccc(-c2ccc(C(F)(F)F)cc2)c1)c1cccc(C(F)(F)F)c1 (stereo unspecified) | > 20000 nM |
| O=C(NC(C(=O)N1CCC1)c1cccc(C(F)(F)F)c1)c1ccccc1-c1ccc(C(F)(F)F)cc1 (racemic) | 3400 nM |
| O=C(NC(C(=O)N1CCCC1)c1cccc(C(F)(F)F)c1)c1ccccc1-c1ccc(C(F)(F)F)cc1 (racemic) | 2500 nM |
| CN(C)C(=O)C(c1cccc(C(F)(F)F)c1)N(C)C(=O)c1ccccc1-c1ccc(C(F)(F)F)cc1 (stereo unspecified) | > 20000 nM |
| CN(C)C(=O)C(C)(NC(=O)c1ccccc1-c1ccc(C(F)(F)F)cc1)c1cccc(C(F)(F)F)c1 (stereo unspecified) | > 20000 nM |
| CN(C)C(=O)[C@@H](NC(=O)c1ncccc1-c1ccc(C(F)(F)F)cc1)c1cccc(C(F)(F)F)c1 | 1000 nM |

Continued, values first:

| IC50 | Structure (SMILES) |
| --- | --- |
| 1600 nM | O=C(N[C@H](C(=O)N1C[C@@H]2[C@H](CO)[C@@H]2C1)c1cccc(C(F)(F)F)c1)c1ccccc1-c1ccc(C(F)(F)F)cc1 |
| 1100 nM | O=C(N[C@H](C(=O)N1C[C@@H]2[C@@H](CO)[C@@H]2C1)c1cccc(C(F)(F)F)c1)c1ccccc1-c1ccc(C(F)(F)F)cc1 |
| 900 nM | Cc1n[nH]cc1-c1ccc(-c2ccc(C(F)(F)F)cc2)c(C(=O)NC(C(=O)N(C)C)c2cccc(C(F)(F)F)c2)c1 (racemic) |
| 1200 nM | CN(C)C(=O)[C@@H](NC(=O)c1ccccc1-c1ccc(C(F)(F)F)cc1)c1cccc(C(F)(F)F)c1 |
| 900 nM | CN(C)C(=O)[C@@H](NC(=O)c1cc(-c2nnnn2C)ccc1-c1ccc(C(F)(F)F)cc1)c1cccc(C(F)(F)F)c1 |
| 100 nM | Cc1cc([C@H](NC(=O)c2cnccc2-c2ccc(C(F)(F)F)cc2)C(=O)N(C)C)cc(C(F)(F)F)c1 |
| 200 nM | CN(C)C(=O)[C@@H](NC(=O)c1cnccc1-c1ccc(C(F)(F)F)cc1)c1ccc(F)c(C(F)(F)F)c1 |
| 200 nM | CN(C)C(=O)[C@@H](NC(=O)c1cnccc1-c1ccc(C(F)(F)F)cc1)c1ccc(Cl)c(Cl)c1 |
| 100 nM | CN(C)C(=O)[C@@H](NC(=O)c1cnccc1-c1ccc(C(F)(F)F)cc1)c1cc(Cl)cc(C(F)(F)F)c1 |
